# Measurements published in patent US10239849B2 (Merck Sharp & Dohme Corp., priority 2015, dated 2019).
# What was measured:
# [1] = molecular target: T1, glutathione-S-transferase (GST) tagged LXRalpha LBD (ligand binding domain) (Homo sapiens, UniProt Q13133); test: LanthaScreen TR-FRET Liver X Receptor Coactivator Assay, LXR alpha-LBD; assay type: biochemical; conditions: for Emax: efficacy in relation to reference dual agonist T1317, read-out: LXR alpha activity at max dose (%) (Emax); for EC50 / LXR alpha IP (nM): potency (Inflection Point) of co-activator recruitment, TR-FRET; for EC50: read-out: LXR alpha IP
# T1 construct: purchased Invitrogen pv4655
# T1 sequence (Q13133 209-447 limits assumed): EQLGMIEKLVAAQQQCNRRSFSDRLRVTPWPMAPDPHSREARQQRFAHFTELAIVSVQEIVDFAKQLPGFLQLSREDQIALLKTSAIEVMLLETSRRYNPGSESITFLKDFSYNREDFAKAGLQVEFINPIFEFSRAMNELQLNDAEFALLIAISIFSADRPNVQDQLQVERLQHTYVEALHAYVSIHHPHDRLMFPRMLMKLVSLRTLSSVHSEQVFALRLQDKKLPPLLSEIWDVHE
# Protocol: (§1) While running the LanthaScreen™ TR-FRET Liver X Receptor Coactivator Assay, LXR alpha-LBD or LXR beta-LBD was added to ligand test compounds followed by addition of a mixture of a fluorescein-labelled coactivator peptide and terbium-conjugated anti-GST antibody. After an incubation period at room temperature, TR-FRET (time-resolved fluorescence resonance energy transfer) was measured using a filter-based instrument capable of TR-FRET, e.g. PerkinElmer Envision.
# [2] = molecular target: T2, glutathione-S-transferase (GST) tagged LXRbeta LBD (ligand binding domain) (Homo sapiens, UniProt P55055); test: LanthaScreen TR-FRET Liver X Receptor Coactivator Assay, LXR beta-LBD; assay type: biochemical; conditions: for Emax: efficacy in relation to reference dual agonist T1317, read-out: LXR beta activity at max dose (%) (Emax); for EC50: potency (Inflection Point) of co-activator recruitment, TR-FRET, read-out: LXR beta IP
# T2 construct: purchased Invitrogen pv4658.pps
# T2 sequence (P55055 222-460 limits assumed): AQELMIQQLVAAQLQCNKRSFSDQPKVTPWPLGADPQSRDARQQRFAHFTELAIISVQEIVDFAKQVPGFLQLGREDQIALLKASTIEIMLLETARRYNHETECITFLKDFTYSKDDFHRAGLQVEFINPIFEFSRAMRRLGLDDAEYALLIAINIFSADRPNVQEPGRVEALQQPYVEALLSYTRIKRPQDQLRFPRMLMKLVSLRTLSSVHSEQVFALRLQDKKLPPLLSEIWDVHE
# Protocol: as §1
structure (smiles),measurement,setting,value
"CN(C)C(=O)c1ccc(-c2cnc(N3CCN(C(=O)Cc4cn5ccsc5n4)CC3)c(C#N)c2)cc1Cl [Example 2-24, 2-chloro-4-{5-cyano-6-[4-(imidazo[2,1-b][1,3]thiazol-6-ylacetyl)piperazin-1-yl]pyridin-3-yl}-N,N-dimethylbenzamide]",Emax,[1],42%
same,EC50,[1],29600 nM
same,Emax,[2],104%
same,EC50,[2],463 nM
"CCCC(O)(C(=O)N1CCN(c2ncc(-c3ccc(C(=O)N(C)C)c(Cl)c3)cc2C#N)CC1)C(F)(F)F (stereo not drawn) [Example 2-25, 2-chloro-4-(5-cyano-6-{4-[2-hydroxy-2-(trifluoromethyl)pentanoyl]piperazin-1-yl}pyridin-3-yl)-N,N-dimethylbenzamide]",Emax,[1],53%
same,EC50,[1],4150 nM
same,Emax,[2],100%
same,EC50,[2],94 nM
"CN(C)C(=O)c1ccc(-c2cnc(N3CCN(C(=O)C4(c5ccccc5)CCCC4)CC3)c(C#N)c2)cc1Cl [Example 2-26, 2-chloro-4-(5-cyano-6-{4-[(1-phenylcyclopentyl)carbonyl]piperazin-1-yl}pyridin-3-yl)-N,N-dimethylbenzamide]",Emax,[1],25%
same,EC50,[1],1990 nM
same,Emax,[2],84%
same,EC50,[2],43 nM
"CN(C)C(=O)c1ccc(-c2ccc(N3CCN(C(=O)[C@](O)(c4ccccc4)C(F)(F)F)CC3)cc2)cc1Cl [Example 2-27, 3-chloro-N,N-dimethyl-4′-{4-[(2R)-3,3,3-trifluoro-2-hydroxy-2-phenylpropanoyl]piperazin-1-yl}biphenyl-4-carboxamide]",Emax,[1],14%
same,LXR alpha IP (nM),[1],No IP
same,Emax,[2],80%
same,EC50,[2],226 nM
"CNC(=O)c1ccc(-c2cnc(N3CCN(C(=O)[C@](O)(c4ccccc4)C(F)(F)F)CC3)c(C#N)c2)cc1Cl [Example 2-28, 2-chloro-4-(5-cyano-6-{4-[(2R)-3,3,3-trifluoro-2-hydroxy-2-phenylpropanoyl]piperazin-1-yl}pyridin-3-yl)-N-methylbenzamide]",Emax,[1],30%
same,EC50,[1],1930 nM
same,Emax,[2],98%
same,EC50,[2],12 nM
"CN(C)C(=O)c1ccc(-c2cnc(N3CCN(C(=O)C4(c5ccccc5F)CCCC4)CC3)c(C#N)c2)cc1Cl [Example 2-29, 2-chloro-4-[5-cyano-6-(4-{[1-(2-fluorophenyl)cyclopentyl]carbonyl}piperazin-1-yl)pyridin-3-yl]-N,N-dimethylbenzamide]",Emax,[1],57%
same,EC50,[1],4230 nM
same,Emax,[2],93%
same,EC50,[2],15 nM
"CN(C)C(=O)c1ccc(-c2cnc(N3CCN(C(=O)C(O)(C(F)(F)F)C(F)(F)F)CC3)c(C#N)c2)cc1Cl [Example 2-30, 2-chloro-4-(5-cyano-6-{4-[3,3,3-trifluoro-2-hydroxy-2-(trifluoromethyl)propanoyl]piperazin-1-yl}pyridin-3-yl)-N,N-dimethylbenzamide]",Emax,[1],66%
same,EC50,[1],5290 nM
same,Emax,[2],125%
same,EC50,[2],6 nM
"CN(C)C(=O)c1ccc(-c2cnc(N3CCN(C(=O)[C@@](O)(c4ccccc4)C(F)(F)F)CC3)c(C#N)c2)cc1Cl [Example 2-31, 2-chloro-4-(5-cyano-6-{4-[(2S)-3,3,3-trifluoro-2-hydroxy-2-phenylpropanoyl]piperazin-1-yl}pyridin-3-yl)-N,N-dimethylbenzamide]",Emax,[1],12%
same,EC50,[1],7290 nM
same,Emax,[2],68%
same,EC50,[2],307 nM
"CN(C)C(=O)c1ccc(-c2cnc(N3CCN(C(=O)C(O)(c4ccccc4)C(F)(F)F)CC3)c(C#N)c2)cc1Cl (stereo not drawn) [Example 2-32, 2-chloro-4-{5-cyano-6-[4-(3,3,3-trifluoro-2-hydroxy-2-phenylpropanoyl)piperazin-1-yl]pyridin-3-yl}-N,N-dimethylbenzamide]",Emax,[1],37%
same,EC50,[1],3050 nM
same,Emax,[2],98%
same,EC50,[2],4 nM
"CN(C)C(=O)c1ccc(-c2cnc(N3CCN(C(=O)C(O)(C4CCCCC4)C(F)(F)F)CC3)c(C#N)c2)cc1Cl (stereo not drawn) [Example 2-33, 2-chloro-4-{5-cyano-6-[4-(2-cyclohexyl-3,3,3-trifluoro-2-hydroxypropanoyl)piperazin-1-yl]pyridin-3-yl}-N,N-dimethylbenzamide]",Emax,[1],27%
same,EC50,[1],3290 nM
same,Emax,[2],115%
same,EC50,[2],162 nM
"CN(C)C(=O)c1ccc(-c2cnc(N3CCN(C(=O)C4(c5ccc(Cl)cc5Cl)CC4)CC3)c(C#N)c2)cc1Cl [Example 2-34, 2-chloro-4-[5-cyano-6-(4-{[1-(2,4-dichlorophenyl)cyclopropyl]carbonyl}piperazin-1-yl)pyridin-3-yl]-N,N-dimethylbenzamide]",Emax,[1],49%
same,EC50,[1],12700 nM
same,Emax,[2],88%
same,EC50,[2],25 nM
"CO[C@@](C(=O)N1CCN(c2ncc(-c3ccc(C(=O)N(C)C)c(Cl)c3)cc2C#N)CC1)(c1ccccc1)C(F)(F)F [Example 2-35, 2-chloro-4-(5-cyano-6-{4-[(2R)-3,3,3-trifluoro-2-methoxy-2-phenylpropanoyl]piperazin-1-yl}pyridin-3-yl)-N,N-dimethylbenzamide]",Emax,[1],62%
same,EC50,[1],54100 nM
same,Emax,[2],70%
same,EC50,[2],75 nM
"CCCC(O)(C(=O)N1CCN(c2ncc(-c3ccc(C(=O)N(C)C)c(Cl)c3)cc2C#N)CC1)C(F)(F)C(F)(F)F (stereo not drawn) [Example 2-36, 2-chloro-4-(5-cyano-6-{4-[2-hydroxy-2-(pentafluoroethyl)pentanoyl]piperazin-1-yl}pyridin-3-yl)-N,N-dimethylbenzamide]",Emax,[1],36%
same,EC50,[1],5130 nM
same,Emax,[2],81%
same,EC50,[2],205 nM
"CN(C)C(=O)c1ccc(-c2cnc(N3CCN(C(=O)C(O)(CCc4ccccc4)C(F)(F)F)CC3)c(C#N)c2)cc1Cl (stereo not drawn) [Example 2-37, 2-chloro-4-(5-cyano-6-{4-[2-hydroxy-4-phenyl-2-(trifluoromethyl)butanoyl]piperazin-1-yl}pyridin-3-yl)-N,N-dimethylbenzamide]",Emax,[1],55%
same,EC50,[1],97600 nM
same,Emax,[2],58%
same,EC50,[2],735 nM
"CN(C)C(=O)c1ccc(-c2cnc(N3CCN(C(=O)C(O)(c4ccccc4Cl)C(F)(F)F)CC3)c(C#N)c2)cc1Cl (stereo not drawn) [Example 2-38, 2-chloro-4-(6-{4-[2-(2-chlorophenyl)-3,3,3-trifluoro-2-hydroxypropanoyl]piperazin-1-yl}-5-cyanopyridin-3-yl)-N,N-dimethylbenzamide]",Emax,[1],18%
same,EC50,[1],292 nM
same,Emax,[2],69%
same,EC50,[2],13 nM
"CN(C)C(=O)c1ccc(-c2cnc(N3CCN(C(=O)OCc4c(Cl)cccc4Cl)CC3)c(C#N)c2)cc1Cl [Example 3-1, 2,6-dichlorobenzyl4-{5-[3-chloro-4-(dimethylcarbamoyl)phenyl]-3-cyanopyridin-2-yl}piperazine-1-carboxylate]",Emax,[1],60%
same,EC50,[1],2310 nM
same,Emax,[2],119%
same,EC50,[2],12 nM
"CC(C)COC(=O)N1CCN(c2ncc(-c3ccc(C(=O)N(C)C)c(Cl)c3)cc2C#N)CC1 [Example 3-2, 2-methylpropyl 4-{5-[3-chloro-4-(dimethylcarbamoyl)phenyl]-3-cyanopyridin-2-yl}piperazine-1-carboxylate]",Emax,[1],19%
same,LXR alpha IP (nM),[1],No IP
same,Emax,[2],41%
same,EC50,[2],1560 nM
"CN(C)C(=O)c1ccc(-c2cnc(N3CCN(C(=O)OCc4cncs4)CC3)c(C#N)c2)cc1Cl [Example 3-3, 1,3-thiazol-5-ylmethyl 4-{5-[3-chloro-4-(dimethylcarbamoyl)phenyl]-3-cyanopyridin-2-yl}piperazine-1-carboxylate]",Emax,[1],42%
same,EC50,[1],19800 nM
same,Emax,[2],62%
same,EC50,[2],217 nM
